How the values were obtained:
Assay in all cases: relative viability (nuclei count vs DMSO), 5 days (fraction); higher = more cells survive
[1] = compound: C1/C(=C\C2=CC=CS2)/C(=O)/C(=C/C3=CC=CS3)/C1 + CC1(C)CCC(c2ccc(Cl)cc2)=C(CN2CCN(c3ccc(C(=O)NS(=O)(=O)c4ccc(N[C@H](CCN5CCOCC5)CSc5ccccc5)c(S(=O)(=O)C(F)(F)F)c4)cc3)CC2)C1 [Navitoclax] (partner 0.5 µM)
How it was run: (§1)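 Medians of duplicate plates are given as relative viability. That measure is the nuclei count in treated wells divided by the count in vehicle wells. Counts were taken on 4× images of lung cancer cell lines in 1536-well plates, 5 days after pin-tool dosing the day after seeding with one drug alone or a fixed anchor-drug dose plus five library-drug doses (not always all listed) in √10 steps.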

[2] = compound: C1/C(=C\C2=CC=CS2)/C(=O)/C(=C/C3=CC=CS3)/C1 + Cc1nc(NC(=O)N2CCC[C@H]2C(N)=O)sc1-c1ccnc(C(C)(C)C(F)(F)F)c1 [Alpelisib] (partner 2 µM)
How it was run: as §1

[3] = compound: C1=CC(=CC=C1C2=CC(=C(S2)NC(=O)N)C(=O)N)F [TPCA-1] + Cc1cc(Nc2cc(N3CCN(C)CC3)nc(Sc3ccc(NC(=O)C4CC4)cc3)n2)n[nH]1 [Tozasertib] (partner 0.1 µM)
How it was run: as §1

[4] = compound: C[C@]12O[C@H](C[C@]1(O)CO)n1c3ccccc3c3c4c(c5c6ccccc6n2c5c31)CNC4=O [Lestaurtinib] + CC(C)C[C@H](NC(=O)[C@H](Cc1ccccc1)NC(=O)c1cnccn1)B(O)O [Bortezomib] (partner 0.002 µM)
How it was run: as §1

UMC-11
relative viability ([1]; first compound 0.2 µM): 0.302 | relative viability ([1]; first compound 0.6325 µM): 0.362 | relative viability ([1]; first compound 2 µM): 0.307 | relative viability ([1]; first compound 20 µM): 0.307 | relative viability ([2]; first compound 0.2 µM): 1.04 | relative viability ([2]; first compound 0.6325 µM): 1.1 | relative viability ([2]; first compound 2 µM): 0.847 | relative viability ([2]; first compound 20 µM): 0.952 | relative viability ([3]; first compound 0.04 µM): 0.208 | relative viability ([3]; first compound 0.1265 µM): 0.207 | relative viability ([3]; first compound 0.4 µM): 0.216 | relative viability ([3]; first compound 1.265 µM): 0.178 | relative viability ([3]; first compound 4 µM): 0.187 | relative viability ([4]; first compound 0.005 µM): 0.602 | relative viability ([4]; first compound 0.01581 µM): 0.621 | relative viability ([4]; first compound 0.05 µM): 0.321 | relative viability ([4]; first compound 0.1581 µM): 0.299 | relative viability ([4]; first compound 0.5 µM): 0.171

Reference: the supplement of paper PMC10307832
